Legend:
Assay type in all cases: cell-based
[1] = tested on: Human dermal fibroblasts from Friedreich's Ataxia patients; experiment: Rescue of BSO-stressed FRDA fibroblasts (Calcein AM viability); details: FRDA fibroblasts GM04078, BSO-stressed, read-out: protection against FRDA, EC50
Protocol: (§1) An initial screen was performed to identify compounds effective for the amelioration of redox disorders. Test samples, 4 reference compounds (idebenone, decylubiquinone, Trolox and α-tocopherol acetate), and solvent controls were tested for their ability to rescue FRDA fibroblasts stressed by addition of L-buthionine-(S,R)-sulfoximine (BSO), as described in Jauslin et al., Hum. Mol. Genet. 11(24):3055 (2002), Jauslin et al., FASEB J. 17:1972-4 (2003), and International Patent Application WO 2004/003565. […] This specific BSO-mediated cell death can be prevented by administration of antioxidants or molecules involved in the antioxidant pathway, such as α-tocopherol, selenium, or small molecule glutathione peroxidase mimetics. However, antioxidants differ in their potency, i.e. the concentration at which they are able to rescue BSO-stressed FRDA fibroblasts.
MEM (a medium enriched in amino acids and vitamins, catalog no. 1-31F24-I) and Medium 199 (M199, catalog no. 1-21F22-I) with Earle's Balanced Salts, without phenol red, were purchased from Bioconcept. Fetal Calf Serum was obtained from PAA Laboratories. Basic fibroblast growth factor and epidermal growth factor were purchased from PeproTech. Penicillin-streptomycin-glutamine mix, L-buthionine (S,R)-sulfoximine, (+)-α-tocopherol acetate, decylubiquinone, and insulin from bovine pancreas were purchased from Sigma. Trolox (6-Hydroxy-2,5,7,8-tetramethylchromane-2-carboxylic acid) was obtained from Fluka. Idebenone was obtained from Chemo Iberica. Calcein AM was purchased from Molecular Probes. Cell culture medium was made by combining 125 ml M199 EBS, 50 ml Fetal Calf Serum, 100 U/ml penicillin, 100 μg/ml streptomycin, 2 mM glutamine, 10 μg/ml insulin, 10 ng/ml EGF, and 10 ng/ml bFGF; MEM EBS was added to make the volume up to 500 ml. A 10 mM BSO solution was prepared by dissolving 444 mg BSO in 200 ml of medium (Invitrogen, Carlsbad, Ca.) with subsequent filter-sterilization. During the course of the experiments, this solution was stored at +4° C. The cells were obtained from the Coriell Cell Repositories (Camden, N.J.; repository number GM04078) and grown in 10 cm tissue culture plates. Every third day, they were split at a 1:3 ratio.
The test samples were supplied in 1.5 ml glass vials. The compounds were diluted with DMSO, ethanol or PBS to result in a 5 mM stock solution. Once dissolved, they were stored at −20° C. Reference antioxidants (idebenone, decylubiquinone, α-tocopherol acetate and Trolox) were dissolved in DMSO.
(§2) Test samples were screened according to the following protocol: A culture with FRDA fibroblasts was started from a 1 ml vial with approximately 500,000 cells stored in liquid nitrogen. Cells were propagated in 10 cm cell culture dishes by splitting every third day in a ratio of 1:3 until nine plates were available. Once confluent, fibroblasts were harvested. For 54 micro titer plates (96 well-MTP) a total of 14.3 million cells (passage eight) were re-suspended in 480 ml medium, corresponding to 100 μl medium with 3,000 cells/well. The remaining cells were distributed in 10 cm cell culture plates (500,000 cells/plate) for propagation. The plates were incubated overnight at 37° C. in a atmosphere with 95% humidity and 5% CO2 to allow attachment of the cells to the culture plate.
(§3) MTP medium (243 μl) was added to a well of the microtiter plate. The test compounds were unfrozen, and 7.5 μl of a 5 mM stock solution was dissolved in the well containing 243 μl medium, resulting in a 150 μM master solution. Serial dilutions from the master solution were made. The period between the single dilution steps was kept as short as possible (generally less than 1 second).
Plates were kept overnight in the cell culture incubator. The next day, 10 μl of a 10 mM BSO solution were added to the wells, resulting in a 1 mM final BSO concentration. […]

[2] = tested on: human dermal fibroblasts from Huntington's patients; experiment: Rescue of fibroblasts from Huntington's patients from oxidative stress; details: Fibroblast, Huntington's cells GM 04281, read-out: protection against Huntington's, EC50
Protocol: as §1, §2, §3
(§4) Plates were kept overnight in the cell culture incubator. The next day, 10 μl of a 10 mM BSO solution were added to the wells, resulting in a 1 mM final BSO concentration. Forty-eight hours later, three plates were examined under a phase-contrast microscope to verify that the cells in the 0% control (wells E1-H1) were clearly dead. The medium from all plates was discarded, and the remaining liquid was removed by gently tapping the plate inversed onto a paper towel.
(§5) 100 μl of PBS containing 1.2 μM Calcein AM were then added to each well. The plates were incubated for 50-70 minutes at room temperature. After that time the PBS was discarded, the plate gently tapped on a paper towel and fluorescence (excitation/emission wavelengths of 485 nm and 525 nm, respectively) was read on a Gemini fluorescence reader. Data was imported into Microsoft Excel (EXCEL is a registered trademark of Microsoft Corporation for a spreadsheet program) and used to calculate the EC50 concentration for each compound.
Compounds of the invention were tested using a screen similar to the one described in Example A, but substituting FRDA cells with Huntington's cells obtained from the Coriell Cell Repositories (Camden, N.J.; repository number GM 04281). The compounds were tested for their ability to rescue human dermal fibroblasts from Huntington's patients from oxidative stress.

[3] = tested on: human dermal fibroblasts from LHON patients; experiment: Rescue of fibroblasts from LHON patients from oxidative stress; details: Fibroblast, LHON cells GM03858, read-out: protection against LHON, EC50
Protocol: as §1, §2, §3, §4, §5
Compounds of the invention were tested using a screen similar to the one described in Example A, but substituting FRDA cells with Leber's Hereditary Optic Neuropathy (LHON) cells obtained from the Coriell Cell Repositories (Camden, N.J.; repository number GM03858). The compounds were tested for their ability to rescue human dermal fibroblasts from LHON patients from oxidative stress.

[4] = tested on: human dermal fibroblasts from Parkinson's Disease patients; experiment: Rescue of fibroblasts from Parkinson's Disease patients from oxidative stress; details: Fibroblast, PD cells AG20439, read-out: protection against PD, EC50
Protocol: as §1, §2, §3, §4, §5
Compounds of the invention were tested using a screen similar to the one described in Example A […], but substituting FRDA cells with Parkinson's Disease (PD) cells obtained from the Coriell Cell Repositories (Camden, N.J.; repository number AG20439). The compounds were tested for their ability to rescue human dermal fibroblasts from Parkinson's Disease patients from oxidative stress.

[5] = tested on: human dermal fibroblasts from CoQ10 deficient patients; experiment: Rescue of fibroblasts from CoQ10 deficient patients from oxidative stress; details: Fibroblast, cells from CoQ10 deficient patients harboring a CoQ2 mutation, read-out: protection against CoQ10 deficiency, EC50
Protocol: as §1, §2, §3, §4, §5
Compounds of the invention were tested using a screen similar to the one described in Example A, but substituting FRDA cells with cells obtained from CoQ10 deficient patients harboring a CoQ2 mutation. The compounds were tested for their ability to rescue human dermal fibroblasts from CoQ10 deficient patients from oxidative stress.

Measured: EC50

CC1=C(C)C(=O)C(CCNc2ccccn2)=C(C)C1=O [2,3,5-Trimethyl-6-(2-(pyridin-2-ylamino)ethyl)cyclohexa-2,5-diene-1,4-dione]
< 100 nM: [1] | [2] | [3] | [4] | [5]

CC1=C(C)C(=O)C(CCNc2ncccc2C(F)(F)F)=C(C)C1=O [2,3,5-Trimethyl-6-(2-(3-(trifluoromethyl)pyridin-2-ylamino)ethyl)cyclohexa-2,5-diene-1,4-dione]
< 100 nM: [1] | [2] | [3] | [4] | [5]

CC1=C(C)C(=O)C(CCNc2ccc(C(F)(F)F)cn2)=C(C)C1=O [2,3,5-Trimethyl-6-(2-(5-(trifluoromethyl)pyridin-2-ylamino)ethyl)cyclohexa-2,5-diene-1,4-dione]
< 100 nM: [1] | [2] | [3] | [4] | [5]

CC1=C(C)C(=O)C(CCNc2nccc(F)n2)=C(C)C1=O [2-(2-(4-Fluoropyrimidin-2-ylamino)ethyl)-3,5,6-trimethylcyclohexa-2,5-diene-1,4-dione]
< 100 nM: [1] | [2] | [3] | [4] | [5]

CC1=C(C)C(=O)C(CCNc2cccc(C(F)(F)F)n2)=C(C)C1=O [2,3,5-Trimethyl-6-(2-(6-(trifluoromethyl)pyridin-2-ylamino)ethyl)cyclohexa-2,5-diene-1,4-dione]
< 100 nM: [1] | [2] | [3] | [4] | [5]

CC1=C(C)C(=O)C(CCNc2nccc(C(F)(F)F)n2)=C(C)C1=O [2,3,5-Trimethyl-6-(2-(4-(trifluoromethyl)pyrimidin-2-ylamino)ethyl)cyclohexa-2,5-diene-1,4-dione]
< 100 nM: [1] | [2] | [3] | [4] | [5]

CC1=C(C)C(=O)C(CCNc2cc(C(F)(F)F)ccn2)=C(C)C1=O [2,3,5-Trimethyl-6-(2-(4-(trifluoromethyl)pyridin-2-ylamino)ethyl)cyclohexa-2,5-diene-1,4-dione]
< 100 nM: [1] | [2] | [3] | [4] | [5]

CC1=C(C)C(=O)C(CCNc2ncccn2)=C(C)C1=O [2,3,5-Trimethyl-6-(2-(pyrimidin-2-ylamino)ethyl)cyclohexa-2,5-diene-1,4-dione]
< 100 nM: [1] | [2] | [3] | [4] | [5]

CC1=C(C)C(=O)C(CCNc2ncc(F)cn2)=C(C)C1=O [2-(2-(5-Fluoropyrimidin-2-ylamino)ethyl)-3,5,6-trimethylcyclohexa-2,5-diene-1,4-dione]
< 100 nM: [1] | [2] | [3] | [4] | [5]

Reference: patent US9073873B2, “2-heterocyclylaminoalkyl-(p-quinone) derivatives for treatment of oxidative stress diseases” (Edison Pharmaceuticals, Inc., priority 2008, dated 2015)
